Results from article PMC9516332 (Frontiers in Oncology, 2022).

Key:
Experiment in all cases: Kinase panel profiling at 1 µmol/L (MSA or IMAP), percentage inhibition
Type in all cases: biochemical
[1] = molecular target: panel of 255 wild-type kinases (Homo sapiens, UniProt P06241); settings: kinase FYN [isoform a]; 1 µmol/L single concentration; read-out: %-inhibition at 1 µmol/L, FYN [isoform a]
[2] = molecular target: panel of 255 wild-type kinases (Homo sapiens, UniProt P31751); settings: AKT2 kinase assay; 1 µmol/L single concentration; read-out: %-inhibition AKT2
[3] = molecular target: T1, panel of 255 wild-type kinases (Homo sapiens, UniProt P52333); settings: kinase JAK3; 1 µmol/L single concentration; read-out: %-inhibition at 1 µmol/L, JAK3
T1 sequence (P52333 1-1124): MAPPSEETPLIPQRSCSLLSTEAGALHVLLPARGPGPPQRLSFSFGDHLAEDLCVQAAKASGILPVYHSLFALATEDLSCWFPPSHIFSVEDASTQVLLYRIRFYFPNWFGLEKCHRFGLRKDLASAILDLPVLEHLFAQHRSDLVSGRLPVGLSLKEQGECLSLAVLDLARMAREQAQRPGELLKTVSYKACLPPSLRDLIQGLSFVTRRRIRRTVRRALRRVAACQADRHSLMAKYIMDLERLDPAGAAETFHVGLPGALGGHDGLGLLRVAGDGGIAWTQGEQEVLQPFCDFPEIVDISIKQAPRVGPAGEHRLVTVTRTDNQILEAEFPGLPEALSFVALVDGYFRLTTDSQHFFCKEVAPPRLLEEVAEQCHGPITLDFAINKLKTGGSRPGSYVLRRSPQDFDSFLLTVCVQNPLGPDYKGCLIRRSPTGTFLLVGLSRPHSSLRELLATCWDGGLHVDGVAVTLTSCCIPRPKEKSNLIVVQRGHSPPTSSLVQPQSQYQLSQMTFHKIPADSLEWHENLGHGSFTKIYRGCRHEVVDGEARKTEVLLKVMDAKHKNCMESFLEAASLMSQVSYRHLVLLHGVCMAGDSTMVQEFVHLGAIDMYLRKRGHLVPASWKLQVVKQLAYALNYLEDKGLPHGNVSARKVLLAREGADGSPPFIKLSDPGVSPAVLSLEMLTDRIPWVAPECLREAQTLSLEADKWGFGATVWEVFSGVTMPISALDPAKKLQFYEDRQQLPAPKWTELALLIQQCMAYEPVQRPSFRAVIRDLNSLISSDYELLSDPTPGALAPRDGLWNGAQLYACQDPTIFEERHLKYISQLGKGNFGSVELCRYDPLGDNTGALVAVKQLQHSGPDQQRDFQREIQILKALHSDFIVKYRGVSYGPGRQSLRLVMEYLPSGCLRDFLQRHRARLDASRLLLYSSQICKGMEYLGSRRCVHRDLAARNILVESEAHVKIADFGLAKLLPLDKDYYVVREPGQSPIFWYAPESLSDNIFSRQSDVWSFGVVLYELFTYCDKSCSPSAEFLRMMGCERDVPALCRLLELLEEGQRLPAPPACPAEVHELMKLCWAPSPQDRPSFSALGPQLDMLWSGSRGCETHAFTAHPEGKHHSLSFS

[4] = molecular target: T2, panel of 255 wild-type kinases (Homo sapiens, UniProt Q12851); settings: kinase MAP4K2; 1 µmol/L single concentration; read-out: %-inhibition at 1 µmol/L, MAP4K2
T2 sequence (Q12851 1-820): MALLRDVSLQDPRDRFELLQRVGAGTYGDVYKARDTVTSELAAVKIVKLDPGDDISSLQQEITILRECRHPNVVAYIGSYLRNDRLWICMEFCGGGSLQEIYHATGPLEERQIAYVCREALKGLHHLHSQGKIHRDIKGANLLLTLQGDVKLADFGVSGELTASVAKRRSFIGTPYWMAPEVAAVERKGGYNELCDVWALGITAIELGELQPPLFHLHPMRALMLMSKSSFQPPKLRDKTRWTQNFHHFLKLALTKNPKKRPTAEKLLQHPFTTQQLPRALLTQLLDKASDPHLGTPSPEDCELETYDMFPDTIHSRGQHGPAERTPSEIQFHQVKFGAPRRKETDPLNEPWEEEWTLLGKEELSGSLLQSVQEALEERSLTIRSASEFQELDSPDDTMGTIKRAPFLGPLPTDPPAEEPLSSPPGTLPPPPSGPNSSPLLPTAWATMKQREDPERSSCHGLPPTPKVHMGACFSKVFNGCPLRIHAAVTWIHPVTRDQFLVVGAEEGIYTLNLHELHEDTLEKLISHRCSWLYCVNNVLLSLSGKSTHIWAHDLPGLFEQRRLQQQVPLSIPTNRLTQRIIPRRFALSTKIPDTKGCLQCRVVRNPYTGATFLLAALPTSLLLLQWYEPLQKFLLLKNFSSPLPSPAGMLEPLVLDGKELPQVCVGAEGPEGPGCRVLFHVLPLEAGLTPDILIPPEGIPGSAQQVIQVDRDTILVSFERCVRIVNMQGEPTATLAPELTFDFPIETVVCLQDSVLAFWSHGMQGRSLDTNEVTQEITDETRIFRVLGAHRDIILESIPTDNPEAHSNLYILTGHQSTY

[5] = molecular target: T3, panel of 255 wild-type kinases (Homo sapiens, UniProt Q13976); settings: kinase PGK; 1 µmol/L single concentration; read-out: %-inhibition at 1 µmol/L, PGK
T3 sequence (Q13976 1-671): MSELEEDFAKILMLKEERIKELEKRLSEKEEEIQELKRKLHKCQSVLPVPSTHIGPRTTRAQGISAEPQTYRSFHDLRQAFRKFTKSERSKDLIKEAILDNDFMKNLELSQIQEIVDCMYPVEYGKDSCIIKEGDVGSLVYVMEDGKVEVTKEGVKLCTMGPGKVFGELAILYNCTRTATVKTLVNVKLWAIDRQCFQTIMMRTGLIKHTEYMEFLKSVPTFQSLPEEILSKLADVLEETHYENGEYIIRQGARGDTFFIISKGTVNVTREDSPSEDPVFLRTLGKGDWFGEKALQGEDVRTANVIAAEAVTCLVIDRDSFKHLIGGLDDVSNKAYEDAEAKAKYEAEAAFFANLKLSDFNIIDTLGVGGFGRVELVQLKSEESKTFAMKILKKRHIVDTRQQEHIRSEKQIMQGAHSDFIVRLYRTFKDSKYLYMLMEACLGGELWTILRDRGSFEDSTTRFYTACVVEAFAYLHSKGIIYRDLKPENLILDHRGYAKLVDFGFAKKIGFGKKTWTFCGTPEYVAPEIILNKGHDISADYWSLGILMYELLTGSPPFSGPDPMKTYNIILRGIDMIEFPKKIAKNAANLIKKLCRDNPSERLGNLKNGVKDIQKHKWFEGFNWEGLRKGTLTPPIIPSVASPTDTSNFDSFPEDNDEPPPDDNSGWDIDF

[6] = molecular target: panel of 255 wild-type kinases (Homo sapiens, UniProt Q9P1W9); settings: kinase PIM2; 1 µmol/L single concentration; read-out: %-inhibition at 1 µmol/L, PIM2

SMILES	inhibition at 1 µM [1] [%]	inhibition at 1 µM [2] [%]	inhibition at 1 µM [3] [%]	inhibition at 1 µM [4] [%]	inhibition at 1 µM [5] [%]	inhibition at 1 µM [6] [%]
Cn1cnc2c(F)c(Nc3ccc(Br)cc3Cl)c(C(=O)NOCCO)cc21 [selumetinib]	-3.52	0.316	6	2.67	-2	-3.45
Cc1cc(Nc2ncnc3ccc(NC4=NC(C)(C)CO4)cc23)ccc1Oc1ccn2ncnc2c1 [tucatinib]	2.29	-1.46	4.65	6	0.26	-3.72
